Results: ChEMBL document CHEMBL1201862, “PubChem BioAssay data set” (2004)
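Following 48 hours of exposure in 96-well plates, responses at five concentrations were used to interpolate endpoints linearly. At the GI50, growth is halved.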 The source made the active and inactive calls. No stated cut-off is given here; in the data, active = GI50 up to about 1.1 µM and inactive = higher.

How the values were obtained:
Test in all cases: DTP human tumour cell line panel, 48 h
A498 = test system: A498
CAKI-1 = test system: CAKI-1
DU-145 = test system: DU-145
EKVX = test system: EKVX
HL-60 = test system: HL-60
HT-29 = test system: HT-29
Hs-578T = test system: Hs-578T
IGROV-1 = test system: IGROV-1
KM12 = test system: KM12
M14 = test system: M14
MOLT-4 = test system: MOLT-4
NCI-H226 = test system: NCI-H226
RXF 393 = test system: RXF 393
SF-268 = test system: SF-268
SF-539 = test system: SF-539
SK-MEL-2 = test system: SK-MEL-2
SK-MEL-5 = test system: SK-MEL-5
SK-OV-3 = test system: SK-OV-3
TK-10 = test system: TK-10
UACC-257 = test system: UACC-257

Row | SMILES | GI50 (A498) | GI50 (CAKI-1) | GI50 (DU-145) | GI50 (EKVX) | GI50 (HL-60) | GI50 (HT-29) | GI50 (Hs-578T) | GI50 (IGROV-1) | GI50 (KM12) | GI50 (M14) | GI50 (MOLT-4) | GI50 (NCI-H226) | GI50 (RXF 393) | GI50 (SF-268) | GI50 (SF-539) | GI50 (SK-MEL-2) | GI50 (SK-MEL-5) | GI50 (SK-OV-3) | GI50 (TK-10) | GI50 (UACC-257)
1 | O=C(CCl)N1CCCCC1C1(c2cc3ccccc3[nH]2)OCCO1 (stereo unspecified) | 4.6 µM (inactive) | 0.828 µM (active) | 5.11 µM (inactive) | 1.5 µM (inactive) | 0.685 µM (active) | 3.66 µM (inactive) | 3.3 µM (inactive) | 0.198 µM (active) | 1.77 µM (inactive) | 3.99 µM (inactive) | 1.85 µM (inactive) | 6.53 µM (inactive) | 3.8 µM (inactive) | 3.22 µM (inactive) | 1.65 µM (inactive) | 7.98 µM (inactive) | 3.08 µM (inactive) | 5.78 µM (inactive) | 3.5 µM (inactive) | 4.7 µM (inactive)
2 | CCN(CC)CCO/N=C1\CC[C@H]2[C@@H]3CCc4cc(OC)ccc4[C@H]3CC[C@]12C | 3.18 µM (inactive) | 0.74 µM (active) | 4.76 µM (inactive) | 3.16 µM (inactive) | 0.885 µM (active) | 0.53 µM (active) | 2.31 µM (inactive) | 3.26 µM (inactive) | 2.01 µM (inactive) | 0.467 µM (active) | 1.44 µM (inactive) | 1.88 µM (inactive) | 1.6 µM (inactive) | 2.07 µM (inactive) | 1.97 µM (inactive) | 2.3 µM (inactive) | 1.73 µM (inactive) |  | 6.44 µM (inactive) | 0.859 µM (active)
3 | [N-]=[N+]=NC1(c2ccccc2)C(=O)c2cccc3c4ccccc4n(c23)C1=O (stereo unspecified) | > 100 µM (inactive) | > 100 µM (inactive) | > 100 µM (inactive) | 92.3 µM (inactive) | < 0.01 µM (active) | 18.4 µM (inactive) | > 100 µM (inactive) | > 100 µM (inactive) | 53.1 µM (inactive) | > 100 µM (inactive) | 98.4 µM (inactive) | > 100 µM (inactive) | > 100 µM (inactive) | > 100 µM (inactive) | > 100 µM (inactive) | > 100 µM (inactive) | > 100 µM (inactive) | > 100 µM (inactive) | > 100 µM (inactive) | > 100 µM (inactive)
4 | OC(C/C=N/N=C/CC(O)(C(F)(F)Cl)C(F)(F)Cl)(C(F)(F)Cl)C(F)(F)Cl | > 10 µM (inactive) | > 10 µM (inactive) | > 10 µM (inactive) | > 10 µM (inactive) | > 10 µM (inactive) | > 10 µM (inactive) | > 10 µM (inactive) | > 10 µM (inactive) | > 10 µM (inactive) | > 10 µM (inactive) | > 10 µM (inactive) | > 10 µM (inactive) | > 10 µM (inactive) | > 10 µM (inactive) | > 10 µM (inactive) | > 10 µM (inactive) | > 10 µM (inactive) | > 10 µM (inactive) | > 10 µM (inactive) | > 10 µM (inactive)
5 | Cc1nc(OCc2ccccc2)c2ncn(CCO)c2n1 | > 100 µM (inactive) | > 100 µM (inactive) | > 100 µM (inactive) |  | > 100 µM (inactive) | > 100 µM (inactive) | > 100 µM (inactive) | > 100 µM (inactive) | > 100 µM (inactive) | > 100 µM (inactive) | > 100 µM (inactive) | > 100 µM (inactive) | > 100 µM (inactive) | > 100 µM (inactive) | > 100 µM (inactive) | > 100 µM (inactive) | > 100 µM (inactive) | > 100 µM (inactive) | > 100 µM (inactive) | > 100 µM (inactive)
6 | CC(=O)OC1CC2C(=O)CC1(C)C2(C)C (stereo unspecified) | > 100 µM (inactive) | > 100 µM (inactive) | > 100 µM (inactive) | > 100 µM (inactive) | > 100 µM (inactive) | > 100 µM (inactive) | > 100 µM (inactive) |  | > 100 µM (inactive) | > 100 µM (inactive) | > 100 µM (inactive) | > 100 µM (inactive) | > 100 µM (inactive) | > 100 µM (inactive) | > 100 µM (inactive) | > 100 µM (inactive) | > 100 µM (inactive) | > 100 µM (inactive) | > 100 µM (inactive) | > 100 µM (inactive)
7 | CC(=O)OC1/C(=C/c2ccc([N+](=O)[O-])cc2)C[C@H]2[C@@H]3CC=C4C[C@@H](OC(C)=O)CC[C@]4(C)[C@H]3CC[C@]12C (stereo partly specified) | > 52.6 µM (inactive) | > 48.9 µM (inactive) | > 100 µM (inactive) | > 85.7 µM (inactive) | 2.61 µM (inactive) | > 100 µM (inactive) | 74.5 µM (inactive) | > 100 µM (inactive) | > 100 µM (inactive) | > 100 µM (inactive) |  | 4.63 µM (inactive) | 20 µM (inactive) | 51.4 µM (inactive) | 59.6 µM (inactive) | > 61.5 µM (inactive) | > 100 µM (inactive) | 41.4 µM (inactive) | 29.6 µM (inactive) | > 100 µM (inactive)
